According to PubChem BioAssay AID1963450 (Molecular Pharmacology Branch, DTP, NCI, 2024):
Several values for one entry are separate records, joined by “and”; a condition that tells them apart may be missing. Equal values may be shown once.

Tested on: 556581-035-R-J1-PDC complex spheroid growth
Assay: Anticancer human tumor 556581-035-R-J1-PDC patient-derived ovarian carcinoma cell line growth inhibition [Asc]
Settings: for viability, T/C: stronger effect = lower value
Protocol: Multicellular complex tumor spheroid response to apoptosis pathway targeting inhibitors Alrizomadlin, Pelcitoclax, and Dasminapant in combination with a variety of drugs and investigational agents in selected tumor cell lines
The MDM2 inhibitor alrizomadlin, the Bcl-2/Bcl-xL inhibitor pelcitoclax, and the IAPs inhibitor dasminapant were evaluated both individually and in combination with standard of care and investigational anticancer small molecules within a complex spheroid model of solid tumors. . Complex spheroids include a stromal component modeled by human endothelial cells (HUVEC) and fibroblasts modeled by human mesenchymal stem cells (MSCs). The concentration ranges selected for each drug and investigational agent were based upon clinically achievable concentrations if the clinical Cmax of the agent was known.
Compounds. The drugs and investigational agents: alrizomadlin (APG-115; NSC831270), pelcitoclax (APG-1252; NSC835773), dasminapant (APG-1387;NSC834197), TAK-243 (NSC785004), copanlisib (NSC809693), olaparib (NSC753686), talazoparib (NSC767125), cobimetinib (NSC 768068), eltanexor (KPT-8602, NSC 794443), abemaciclib (NSC 768073), sotorasib (NSC818433), adagrasib (NSC 831453), MRTX-1133 (NSC 836407), Iadademestat (ORY1001, NSC 806812), and RMC-4630 (NSC839698), were obtained from the NCI Developmental Therapeutics Program Chemical Repository. The FDA-approved anticancer drug set is available from the Developmental Therapeutics Program at https://dtp.cancer.gov/organization/dscb/obtaining/available plates.htm. […] The stock solutions were prepared in dimethyl sulfoxide (DMSO, Sigma-Aldrich, St. Louis, MO, cat. D2650) at 800-fold the tested concentration and stored at -70 degrees C prior to their use. All drugs and investigational agents were tested over a range starting from a high concentration at or near the clinical Cmax and decreasing in half-log increments. If the clinical Cmax for an agent had not been determined, the highest concentration tested was 10 microM.
The patient-derived cancer (PDC) cell lines include five colon adenocarcinomas: 186277-243-T-J2-PDC, 616215-338-R-J1-PDC, 439559-082-T-J2-PDC, 463943-066-T-J2-PDC, and 519858-162-T-J1-PDC; three pancreatic carcinomas: 323965-272-R-J2-PDC, 521955-158-R6-J3-PDC, and 521955-158-R2-J5-PDC; two uterine sarcomas: 327498-152-R-J2-PDC and 993429-296-R-J1-PDC; two rhabdomyosarcomas: 755483-174-R-J1-PDC and 772245-204-R-J1-PDC; two soft tissue sarcomas: 126254-015-R-J1-PDC and 494315-158-R-J1-PDC; two malignant fibrous histiocytomas: 317291-083-R-J1-PDC and 596521-263-R-J1-PDC; two breast carcinomas: 171881-019-R-J1-PDC and 885512-296-R-J2-PDC; and one ovarian carcinoma: 6556581-035-R-J-PDC were obtained from the NCI PDMR, (https://pdmr.cancer.gov). The established cell lines HSSY-2 synovial sarcoma (RRID:CVCL 8719), SYO-1 synovial sarcoma (RRID:CVCL_7146), MPNST malignant peripheral neural sheath tumor were obtained from the Sloan Kettering Institute. The following established cell lines were purchased from the American Type Culture Collection (ATCC, Manassas, VA), Sor the received from the NCI repository:, PANC-1 pancreatic carcinoma (CRL-1469, RRID:CVCL_0480), OVCAR-5 ovarian carcinoma (RRID:CVCL_1628), OVCAR-8 ovarian carcinoma (RRID:CVCL_1629), , MCF-7 breast carcinoma (CRL-12584, RRID:CVCL_0031), MDA-MB-231 breast carcinoma (CRL-12532, RRID:CVCL_0062), NCI-H1876 small cell lung carcinoma (CRL-5902, RRID:CVCL_1503), NCI-H510A small cell lung carcinoma (HTB-184, RRID:CVCL_1565), NCI-H1417 (CRL-5869, RRID:CVCL_1469), and NCI-H196 small cell lung carcinoma (CRL-5823, RRID:CVCL_1509). Dr. Peter Houghton (Greehey Children's Cancer Research Institute, University of Texas Health Science Center, San Antonio, TX) provided Rh-18 rhabdomyosarcoma (RRID:CVCL_1659). Pooled donor human umbilical vein endothelial cells (HUVEC, Lonza, cat. CC-2519) and human mesenchymal stem cells (hMSC, Lonza, cat. PT-2501) were purchased from Lonza (Walkersville, MD).
Cell Culture. […]
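Note: spheroids exposed to agents for 7 days before viability read.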

Row | SMILES | IC50 (curve of compound) | viability, T/C (compound 0.0316 µM) | viability, T/C (compound 0.1 µM) | viability, T/C (compound 0.316 µM) | viability, T/C (compound 1 µM) | viability, T/C (compound 3.16 µM) | viability, T/C (compound 10 µM) | viability, T/C (compound 0.00316 µM) | viability, T/C (compound 0.01 µM) | also measured
1 | CCN1C(C(=O)NC23CCC(C(=O)O)(CC2)CC3)C(c2cccc(Cl)c2F)C2(C(=O)Nc3cc(Cl)ccc32)C12CCCCC2 (stereo unspecified) | > 3000 nM | – | – | – | – | – | – | – | – | viability, T/C (compound 0.00949 µM): 95.4% and 108%; IC50 (compound alone, run of 10/11/2022): > 3000 nM
2 | CNC(C)C(=O)NC1CN(S(=O)(=O)c2cccc(S(=O)(=O)N3CCC4CCC(C(=O)NC(c5ccccc5)c5ccccc5)N4C(=O)C(NC(=O)C(C)NC)C3)c2)CCC2CCC(C(=O)NC(c3ccccc3)c3ccccc3)N2C1=O (stereo unspecified) | > 1000 nM | 89.3% [middle of 14 runs] | – | 74.3% [middle of 14 runs] | – | – | – | 96.2% and 82.3% and 87.2% | – | IC50 (compound alone, run of 10/24/2022): > 1000 nM; IC50 (compound alone, run of 11/15/2022): > 1000 nM
3 | COc1c(OCCCN2CCOCC2)ccc2c3n(c(=NC(=O)c4cnc(N)nc4)nc12)CCN3 | 53.7 nM and 38.1 nM and 25.9 nM | 46.2% and 48.9% and 45.8% | 48.2% and 42% and 41% | 31.7% and 22.4% and 24.1% | 11.9% and 14.8% and 17.5% | – | – | 78.2% and 82.3% and 79.7% | 72.5% and 69% and 57% | –
4 | Cc1nc(N2CCC3(CC2)COC(C)C3N)c(CO)nc1Sc1ccnc(N)c1Cl (stereo unspecified) | 2290 nM and > 3000 nM | – | – | – | – | – | – | – | – | viability, T/C (compound 0.00949 µM): 111% (2×) and 89.8%; viability, T/C (compound 0.03 µM): 101% and 92.6% and 91.2%; viability, T/C (compound 0.0949 µM): 87.5% and 79.8% and 84%; viability, T/C (compound 0.3 µM): 81.9% and 68.8% and 83.9%; viability, T/C (compound 0.949 µM): 62.8% and 61.9% and 56.5%; viability, T/C (compound 3 µM): 44.7% and 51% and 51.8%
5 | Cn1ncnc1[C@H]1c2n[nH]c(=O)c3cc(F)cc(c23)N[C@@H]1c1ccc(F)cc1 | > 100 nM | 105% and 86.6% and 94.5% | 99.7% and 85.6% and 94.2% | – | – | – | – | 97.7% and 107% and 74.9% | 106% and 99.9% and 76.3% | viability, T/C (compound 0.000316 µM): 100% and 86.8% and 84.9%; viability, T/C (compound 0.001 µM): 111% and 95.3% and 97%
6 | NC(=O)C(=Cn1cnc(-c2cc(C(F)(F)F)cc(C(F)(F)F)c2)n1)c1cncnc1 | > 300 nM | – | – | – | – | – | – | – | – | viability, T/C (compound 0.000949 µM): 96.8% and 78.4% and 91%; viability, T/C (compound 0.003 µM): 79.9% and 83.7% and 94.9%; viability, T/C (compound 0.00949 µM): 97.6% and 97.4% and 87%; viability, T/C (compound 0.03 µM): 88.8% and 107% and 101%; viability, T/C (compound 0.0949 µM): 97.1% and 55.4% and 87.1%; viability, T/C (compound 0.3 µM): 95.9% and 77.4% and 102%
7 | NC1CCC(NC2CC2c2ccccc2)CC1 (stereo unspecified) | > 100 nM | 94.2% and 84.8% and 111% | 87.9% and 97.2% and 85% | – | – | – | – | 92.3% and 95.4% and 89.9% | 89.6% and 94.8% and 95.2% | viability, T/C (compound 0.000316 µM): 86.2% and 89% and 93.9%; viability, T/C (compound 0.001 µM): 88.5% and 105% and 92.8%

The next lines start with results.

Row | IC50 (curve of compound) | SMILES | viability, T/C (compound 0.0316 µM) | viability, T/C (compound 0.1 µM) | viability, T/C (compound 0.316 µM) | viability, T/C (compound 1 µM) | viability, T/C (compound 3.16 µM) | viability, T/C (compound 10 µM) | viability, T/C (compound 0.00316 µM) | viability, T/C (compound 0.01 µM) | also measured
8 | > 10000 nM | C#Cc1c(F)ccc2cc(O)cc(-c3ncc4c(N5CC6CCC(C5)N6)nc(OCC56CCCN5CC(F)C6)nc4c3F)c12 (stereo unspecified) | 101% and 92.2% and 88% | 105% and 102% and 87.2% | 94.2% and 81% and 90.1% | 102% and 80.5% and 75.8% | 97.2% and 89.5% and 113% | 91.1% and 85.6% and 83.9% | – | – | –
9 | 3020 nM and 4070 nM and 3520 nM | C=C(F)C(=O)N1CCN(c2nc(OCC3CCCN3C)nc3c2CCN(c2cccc4cccc(Cl)c24)C3)CC1CC#N (stereo unspecified) | 77.9% and 98.7% and 100% | 113% and 115% and 91.5% | 102% and 110% and 95% | 90.5% and 87% and 93.3% | 48.4% and 64.9% and 55.1% | 15% and 3.22% and 1% | – | – | –
10 | > 10000 nM | C=CC(=O)N1CCN(c2nc(=O)n(-c3c(C)ccnc3C(C)C)c3nc(-c4c(O)cccc4F)c(F)cc23)C(C)C1 (stereo unspecified) | 111% and 113% and 95.5% | 88.9% and 109% and 106% | 104% and 110% and 108% | 83.5% and 88.5% and 109% | 99% and 99.9% and 109% | 111% and 76.8% and 107% | – | – | –
11 | > 1000 nM | CCN1CCN(Cc2ccc(Nc3ncc(F)c(-c4cc(F)c5nc(C)n(C(C)C)c5c4)n3)nc2)CC1 | 88.9% and 97.7% and 107% | 85.2% and 84.8% and 106% | 76.2% and 64.5% and 69.5% | 76.5% and 76.4% and 66.7% | – | – | 105% and 78% and 90.7% | 84.4% and 87.4% and 107% | –
12 | > 10000 nM | O=C(c1cc(Cc2n[nH]c(=O)c3ccccc23)ccc1F)N1CCN(C(=O)C2CC2)CC1 | 102% and 112% and 91.3% | 107% and 101% and 99.2% | 106% (2×) and 60% | 95.7% and 85.4% and 88.8% | 106% and 98.3% and 72.7% | 81.1% and 83.3% and 78.6% | – | – | –
13 | 171 nM and 164 nM and 263 nM | O=C(c1ccc(F)c(F)c1Nc1ccc(I)cc1F)N1CC(O)([C@@H]2CCCCN2)C1 | 59.3% and 70.2% and 121% | 63.9% and 59.8% and 92% | 50.6% and 37.8% and 42% | 7.45% and 10.7% and 14% | – | – | 108% and 79.6% and 89.6% | 109% and 97.5% and 101% | –
